Results taken from PubChem BioAssay AID270 (DTP/NCI, 2004).
“And” between values parts separate entries of the source, which are not always exact repeats. Identical values can stand only once. Records with an inconclusive call do not appear. *1 amine or outer side, *2 acyl side, *3 side chain or, on linkers, in order; H or OH if unused. Where a SMILES comes first, the peptide text is derived from it. Bridges are numbered along the chain shown (N, C = ends). Roman numbers before positions name the chains, in order. [ ]: non-standard residue; d: D form. Actinocin(1to9) = Cc1c2oc3c(C)ccc(C(=O)[*:2])c3nc-2c(C(=O)[*:1])c(N)c1=O; NMeV = CN[CH](C(=O)O)C(C)C; Sar = CNCC(=O)O

Test system: BDF1 mice, s.c. Lewis lung carcinoma, T/C %
Test: NCI In Vivo Anticancer Drug Screen. Data for tumor model Lewis Lung Carcinoma (subcutaneous) in B6D2F1 (BDF1) mice
How it was run: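 First, mice carry a transplantable tumor. Next, groups receive either compound or vehicle. Finally, survival or tumor dimensions in the dosed animals are divided by the corresponding control figure.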

For OCC1OC(n2cnc3c2NC=NC[C@H]3O)CC1O (stereo partly drawn), the T/C (endpoint: median survival time, dose: 0.05 mg/kg/injection, schedule: Q03HX024 (ip), vehicle: saline, higher = longer survival) was 110 % of control, the T/C (endpoint: median survival time, dose: 0.1 mg/kg/injection, schedule: Q03HX024 (ip), vehicle: saline, higher = longer survival) was 86 % of control and the T/C (endpoint: median survival time, dose: 0.4 mg/kg/injection, schedule: Q03HX024 (ip), vehicle: saline, higher = longer survival) was 90 % of control.
With COc1cc(C[C@H]2c3cc(OC)c(OC)cc3CCN2C)c(Oc2cc3c(cc2OC)-c2c(OC)c(OC)cc4c2[C@H](C3)N(C)CC4)cc1OC the T/C (endpoint: mean tumor weight, dose: 50.0 mg/kg/injection, schedule: Q01DX011 (ip), vehicle: carboxymethylcellulose (CMC), higher = larger tumour) was 49 % of control and the T/C (endpoint: mean tumor weight, dose: 100.0 mg/kg/injection, schedule: Q01DX011 (ip), vehicle: carboxymethylcellulose (CMC), higher = larger tumour) was 26 % of control.
NC(=S)N/N=C/c1ccc(O)cn1 was tested, and the T/C (endpoint: median survival time, dose: 18.8 mg/kg/injection, schedule: Q01DX009 (ip), vehicle: saline with Tween-80, higher = longer survival) was 94 % of control, the T/C (endpoint: median survival time, dose: 37.5 mg/kg/injection, schedule: Q01DX009 (ip), vehicle: saline with Tween-80, higher = longer survival) was 106 % of control and 119 % of control and the T/C (endpoint: median survival time, dose: 75.0 mg/kg/injection, schedule: Q01DX009 (ip), vehicle: saline with Tween-80, higher = longer survival) was 97 % of control. The T/C (endpoint: median survival time, dose: 150.0 mg/kg/injection, schedule: Q01DX009 (ip), vehicle: saline with Tween-80, higher = longer survival) was 121 % of control.
For COc1ccc(CN(CCOC(=O)c2ccc(OC)cc2)CCN(CCOC(=O)c2ccc(OC)cc2)Cc2ccc(OC)cc2)cc1, the T/C (endpoint: median survival time, dose: 25.0 mg/kg/injection, schedule: Q01DX009 (ip), vehicle: other, higher = longer survival) was 100 % of control, the T/C (endpoint: median survival time, dose: 50.0 mg/kg/injection, schedule: Q01DX009 (ip), vehicle: other, higher = longer survival) was 98 % of control and the T/C (endpoint: median survival time, dose: 100.0 mg/kg/injection, schedule: Q01DX009 (ip), vehicle: other, higher = longer survival) was 93 % of control. The T/C (endpoint: median survival time, dose: 200.0 mg/kg/injection, schedule: Q01DX009 (ip), vehicle: other, higher = longer survival) was 100 % of control.
Nc1nc(SN=Nc2ccc(S(N)(=O)=O)cc2)c2[nH]cnc2n1 was tested, and the T/C (endpoint: mean tumor weight, dose: 0.6 mg/kg/injection, schedule: Q01DX011 (ip), vehicle: saline, higher = larger tumour) was 64 % of control, the T/C (endpoint: mean tumor weight, dose: 1.0 mg/kg/injection, schedule: Q01DX011 (ip), vehicle: saline, higher = larger tumour) was 43 % of control and the T/C (endpoint: mean tumor weight, dose: 1.5 mg/kg/injection, schedule: Q01DX011 (ip), vehicle: saline, higher = larger tumour) was 93 % of control. The T/C (endpoint: mean tumor weight, dose: 2.2 mg/kg/injection, schedule: Q01DX011 (ip), vehicle: other, higher = larger tumour) was 67 % of control, the T/C (endpoint: mean tumor weight, dose: 2.2 mg/kg/injection, schedule: Q01DX011 (ip), vehicle: saline, higher = larger tumour) was 52 % of control and 67 % of control and the T/C (endpoint: mean tumor weight, dose: 3.3 mg/kg/injection, schedule: Q01DX011 (ip), vehicle: other, higher = larger tumour) was 72 % of control. For the same molecule, the T/C (endpoint: mean tumor weight, dose: 3.3 mg/kg/injection, schedule: Q01DX011 (ip), vehicle: saline, higher = larger tumour) was 36 % of control, the T/C (endpoint: mean tumor weight, dose: 5.0 mg/kg/injection, schedule: Q01DX011 (ip), vehicle: other, higher = larger tumour) was 35 % of control and the T/C (endpoint: mean tumor weight, dose: 5.0 mg/kg/injection, schedule: Q01DX011 (ip), vehicle: saline, higher = larger tumour) was 40 % of control. For the same molecule, the T/C (endpoint: mean tumor weight, dose: 7.5 mg/kg/injection, schedule: Q01DX011 (ip), vehicle: other, higher = larger tumour) was 11 % of control and the T/C (endpoint: mean tumor weight, dose: 7.5 mg/kg/injection, schedule: Q01DX011 (ip), vehicle: saline, higher = larger tumour) was 19 % of control.
With O=c1[nH]cnc2nc[nH]c12 the T/C (endpoint: mean tumor weight, dose: 62.5 mg/kg/injection, schedule: Q01DX011 (ip), vehicle: saline, higher = larger tumour) was 121 % of control, the T/C (endpoint: mean tumor weight, dose: 125.0 mg/kg/injection, schedule: Q01DX011 (ip), vehicle: saline, higher = larger tumour) was 108 % of control and the T/C (endpoint: mean tumor weight, dose: 250.0 mg/kg/injection, schedule: Q01DX011 (ip), vehicle: saline, higher = larger tumour) was 107 % of control. For the same molecule, the T/C (endpoint: mean tumor weight, dose: 500.0 mg/kg/injection, schedule: Q01DX011 (ip), vehicle: saline, higher = larger tumour) was 76 % of control.
In the case of COc1ccc(-c2cc(=O)c3c(OC)c(OC)c(OC)c(OC)c3o2)c(OC)c1, the T/C (endpoint: mean tumor weight, dose: 12.5 mg/kg/injection, schedule: Q01DX011 (sc), vehicle: steriod suspending solution, higher = larger tumour) is reported as 72 % of control, the T/C (endpoint: mean tumor weight, dose: 25.0 mg/kg/injection, schedule: Q01DX011 (sc), vehicle: steriod suspending solution, higher = larger tumour) is reported as 88 % of control and the T/C (endpoint: mean tumor weight, dose: 50.0 mg/kg/injection, schedule: Q01DX011 (sc), vehicle: steriod suspending solution, higher = larger tumour) is reported as 87 % of control. For the same molecule, the T/C (endpoint: mean tumor weight, dose: 100.0 mg/kg/injection, schedule: Q01DX011 (sc), vehicle: steriod suspending solution, higher = larger tumour) was 86 % of control.
For CCC(C)C1NC(=O)C(NC(=O)c2c3nc4c(C(=O)NC5C(=O)NC(C(C)CC)C(=O)N6CCCC6C(=O)N(C)CC(=O)N(C)C(C(C)C)C(=O)OC5C)ccc(C)c4oc-3c(C)c(=O)c2N)C(C)OC(=O)C(C(C)C)N(C)C(=O)CN(C)C(=O)C2CCCN2C1=O (stereo not drawn) (I: TIP[Sar][NMeV] / II: TIP[Sar][NMeV]; ester I:1-I:C, II:1-II:C; linker I:N-II:N via Actinocin(1to9); configuration not given here), the T/C (endpoint: median survival time, dose: 12.5 micrograms/kg/injection, schedule: Q01DX009 (ip), vehicle: water, higher = longer survival) was 112 % of control, the T/C (endpoint: median survival time, dose: 25.0 micrograms/kg/injection, schedule: Q01DX009 (ip), vehicle: water, higher = longer survival) was 109 % of control and the T/C (endpoint: median survival time, dose: 50.0 micrograms/kg/injection, schedule: Q01DX009 (ip), vehicle: water, higher = longer survival) was 115 % of control. For the same molecule, the T/C (endpoint: median survival time, dose: 75.0 micrograms/kg/injection, schedule: Q04DX003 (ip), vehicle: water, higher = longer survival) was 105 % of control, the T/C (endpoint: median survival time, dose: 150.0 micrograms/kg/injection, schedule: Q04DX003 (ip), vehicle: water, higher = longer survival) was 111 % of control and the T/C (endpoint: median survival time, dose: 300.0 micrograms/kg/injection, schedule: Q04DX003 (ip), vehicle: water, higher = longer survival) was 116 % of control.
